Values joined by “and” are separate entries in the source; they are usually repeats but may differ in a detail not shown here. Equal values may be shown once.

The conditions of this data set: instrument: TW, calibrated with polyalanine and drug standards.

`O=C(/C=C/c1ccc(O)c(O)c1)O[C@H](Cc1ccc(O)c(O)c1)C(=O)O` [ROSMARINIC ACID]: for the setting “[M+H]+”, the “collision cross section (N2)” value is given as 169.2 Å².
For `O=C1C=CC(=C(c2ccc(O)cc2)c2ccc(O)cc2)C=C1` [ROSOLIC ACID], the “collision cross section (N2)” value ([M+H]+) was found to be 169.1 Å².
With `C=C[C@H](C1=CC(=O)C=CC1=O)c1ccccc1` [S-DALBERGIONE], the “collision cross section (N2)” value ([M+H]+) was found to be 143.6 Å².
On to `OCc1ccccc1O[C@@H]1O[C@H](CO)[C@@H](O)[C@H](O)[C@H]1O` [SALICIN], for which, under “[M+Na]+”, the “collision cross section (N2)” value is listed as 163.2 Å².
`COc1cc2c(cc1O)CCNC2C` (stereo not drawn) [SALSOLINE]: under “[M+H]+”, the “collision cross section (N2)” value stood at 145.8 Å².
Consider `Cc1ncc([N+](=O)[O-])n1CC(C)O` (stereo not drawn) [SECNIDAZOLE], for which, for the setting “[M+H]+”, the “collision cross section (N2)” value stood at 135.2 Å².
Same read-out and setting: with `O=C1C=C2C=C[C@@H]3C[C@@]2(O1)[C@H]1CCCCN31` [SECURININE] the figure was 146.4 Å²; with `CO[C@H]1C[C@H](O[C@@H]2/C(C)=C/C[C@@H]3C[C@@H](C[C@]4(CC[C@H](C)[C@@H](C5CCCCC5)O4)O3)OC(=O)[C@@H]3C=C(C)/C(=N/O)[C@H]4OC/C(=C\C=C\[C@@H]2C)[C@]43O)O[C@@H](C)[C@@H]1O` [SELAMECTIN], 293.2 Å².
Consider `COc1cc([C@H]2Oc3cc([C@H]4Oc5cc(O)cc(O)c5C(=O)[C@@H]4O)ccc3O[C@@H]2CO)ccc1O` [SILIBININ], for which the “collision cross section (N2)” value ([M+H]+) is listed as 213.6 Å².
`COc1ccc(-c2cc(=O)c3c(OC)c(OC)c(OC)cc3o2)cc1OC` [SINENSETIN]: the “collision cross section (N2)” value ([M+H]+) stood at 186.4 Å².
Take `CO[C@H]1C[C@@H]2CC[C@@H](C)[C@@](O)(O2)C(=O)C(=O)N2CCCC[C@H]2C(=O)O[C@H]([C@H](C)C[C@@H]2CC[C@@H](O)[C@H](OC)C2)CC(=O)[C@H](C)/C=C(\C)[C@@H](O)[C@@H](OC)C(=O)[C@H](C)C[C@H](C)/C=C/C=C/C=C/1C` [SIROLIMUS]: the “collision cross section (N2)” value ([M+Na]+) is 311.6 Å².
In the case of `C[C@@H]1CC[C@@]2(OC1)O[C@H]1C[C@H]3[C@@H]4CC[C@@H]5C[C@@H](O)CC[C@]5(C)[C@H]4CC[C@]3(C)[C@H]1[C@@H]2C` [SMILAGENIN], the “collision cross section (N2)” value ([M+H]+) is 207.7 Å².
Consider `CC(C)=CCC/C(C)=C/CC/C(C)=C/CC/C(C)=C/CC/C(C)=C/CC/C(C)=C/CC/C(C)=C/CC/C(C)=C/CC/C(C)=C/CO` [SOLANESOL], for which the “collision cross section (N2)” value ([M+H-H2O]+) was 256.8 Å².
As for `C[N+]12CC[C@@]34c5ccccc5N5C(=O)CC6OCC=C(C1)[C@H](CC32)[C@@H]6C54` (stereo partly drawn) [STRYCHNINE METHIODIDE], the “collision cross section (N2)” value ([M]+) was found to be 175.2 Å².
On to `O=C1C[C@@H]2OCC=C3CN4CC[C@]56c7ccccc7N1[C@H]5[C@H]2[C@H]3C[C@H]46` [STRYCHNINE], for which, where the note is “[M+H]+”, the “collision cross section (N2)” value was determined as 172.2 Å².
As for `O=C(O)CCC(=O)Nc1ccc(S(=O)(=O)Nc2nccs2)cc1` [SUCCINYLSULFATHIAZOLE], the “collision cross section (N2)” value ([M+H]+) worked out at 182.4 Å².
Turning to `Nc1ccc(S(=O)(=O)Nc2ncccn2)cc1` [SULFADIAZINE], the “collision cross section (N2)” value ([M+H]+) is given as 150.9 Å².
Same read-out and setting: with `COc1ncnc(NS(=O)(=O)c2ccc(N)cc2)c1OC` [SULFADOXINE] the figure was 166.2 Å²; with `COc1cnc(NS(=O)(=O)c2ccc(N)cc2)nc1` [SULFAMETER], 159 Å²; with `CC(=O)Nc1ccc(S(=O)(=O)Nc2ccc([N+](=O)[O-])cc2)cc1` [SULFANITRAN], 173.2 Å².
Regarding `Nc1ccc(S(=O)(=O)Nc2ccnn2-c2ccccc2)cc1` [SULFAPHENAZOLE], the “collision cross section (N2)” value ([M+H]+) stood at 170 Å².
Still for that read-out and setting: as for `CCCCCCCCNC(C)C(O)c1ccc(SC(C)C)cc1` (stereo not drawn) [SULOCTIDIL], the figure is 197.3 Å².
For `COP(=S)(OC)Oc1ccc(Sc2ccc(OP(=S)(OC)OC)cc2)cc1` [TEMEFOS], the “collision cross section (N2)” value ([M+H]+) is 203.3 Å² and 187.6 Å².

Source of the values: the C3SDB collision cross section collection.
